Test results as given in patent US20110081315A1, “NOVEL MACROCYCLIC INHIBITORS OF HEPATITIS C VIRUS REPLICATION” (INTERMUNE, INC., priority 2009, published 2011).
Where two headings read alike, the source gives them in different places.

How the values were obtained:
[1] = rcm bond
hepatitis C replicon = hepatitis C replicon EC50 assay; assay type: cell-based; conditions: Hepatitis C virus
Summary of the method: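 Buffer: 50 mM Tris-HCl pH 7.5, 15% glycerol, 0.6 mM LDAO, 25 μM NS4A peptide, 10 mM DTT, at 23° C. (ambient). EC50 follows a referenced published replicon protocol.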

NS3/NS4 complexes = NS3/NS4 complexes (Hepatitis C virus genotype 1a, UniProt P27958); experiment: NS3/NS4 inhibition assay (IC50); assay type: biochemical; conditions: NS3/NS4 activity; 23° C., 25 μM NS4A peptide
Summary of the method: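 Enzyme IC50: NS3/NS4 complex, 23° C.; buffer Tris-HCl 50 mM pH 7.5 / glycerol 15% / DTT 10 mM / LDAO 0.6 mM / NS4A peptide 25 μM. Cellular: HCV replicon EC50.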

[2] = hepatitis C replicon, read-out: EC50

NS3/NS4 complexes, sequence (P27958 1027-1657, one chain of several): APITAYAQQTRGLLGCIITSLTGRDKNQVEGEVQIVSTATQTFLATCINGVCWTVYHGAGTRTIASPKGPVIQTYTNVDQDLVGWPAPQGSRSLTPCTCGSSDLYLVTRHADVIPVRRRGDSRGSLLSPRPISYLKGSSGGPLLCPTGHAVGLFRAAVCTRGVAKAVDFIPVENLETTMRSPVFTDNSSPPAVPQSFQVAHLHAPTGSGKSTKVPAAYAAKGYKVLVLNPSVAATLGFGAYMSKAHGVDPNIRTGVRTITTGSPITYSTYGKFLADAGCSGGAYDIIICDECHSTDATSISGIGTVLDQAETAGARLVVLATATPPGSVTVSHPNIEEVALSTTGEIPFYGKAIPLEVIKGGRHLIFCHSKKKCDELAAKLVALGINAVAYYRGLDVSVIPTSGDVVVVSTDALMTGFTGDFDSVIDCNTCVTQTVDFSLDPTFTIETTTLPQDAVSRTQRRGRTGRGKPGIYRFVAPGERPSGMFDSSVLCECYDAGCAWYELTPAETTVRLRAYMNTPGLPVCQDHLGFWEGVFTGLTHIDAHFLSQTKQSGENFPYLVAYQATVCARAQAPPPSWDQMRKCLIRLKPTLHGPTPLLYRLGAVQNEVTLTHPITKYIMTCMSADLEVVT

Q: Which ring closure, yield of all isomers ([1]; from C=CCCCCN(C(=O)[C@@H]1C[C@@H](O)C[C@H]1C(=O)N[C@]1(C(=O)OCC)C[C@H]1C=C)c1ccccc1, Hoveyda-Grubbs 2nd generation, DCE, 0.167 mM, 83.0 °C, 16.0 h) does the source give for `CCOC(=O)[C@@]12C[C@H]1C=CCCCCN(c1ccccc1)C(=O)[C@@H]1C[C@@H](O)C[C@H]1C(=O)N2` here?
A: 94.6%

Q: Which ring closure, yield of all isomers ([1]; from C=CCCCCC[C@H](Nc1cccc(F)c1)C(=O)N1C[C@H](Oc2nc(-c3nc(C(C)C)cs3)nc3c(C)c(OC)ccc23)C[C@H]1C(=O)N[C@]1(C(=O)NS(=O)(=O)C2(C)CC2)C[C@H]1C=C, Zhan catalyst, toluene, 7.24 mM, 65.0 °C, 0.67 h) does the source give for `COc1ccc2c(O[C@@H]3C[C@H]4C(=O)N[C@]5(C(=O)NS(=O)(=O)C6(C)CC6)C[C@H]5C=CCCCCC[C@H](Nc5cccc(F)c5)C(=O)N4C3)nc(-c3nc(C(C)C)cs3)nc2c1C` here?
A: 24%

Q: Which results are given for `CC(C)n1c(O[C@@H]2C[C@H]3C(=O)N[C@]4(C(=O)NS(=O)(=O)C5CC5)C[C@H]4/C=C\CCCCC[C@H](NC(=O)OC(C)(C)C)C(=O)N3C2)nc2c(-c3nc(-c4ccccc4)cs3)cccc21` [Compound 221]?
A: EC50 (hepatitis C replicon; [2]): < 10 nM; IC50 (NS3/NS4 complexes): < 10 nM

Q: Which EC50 (hepatitis C replicon; [2]) does the source give for `CC(C)n1c(O[C@@H]2C[C@H]3C(=O)N[C@]4(C(=O)NS(=O)(=O)N(C)C)C[C@H]4/C=C\CCCCC[C@H](NC(=O)OC(C)(C)C)C(=O)N3C2)nc2c(NC(N)=O)cccc21` [Compound 1425] here?
A: 10 to 100 nM

Q: And the IC50 (NS3/NS4 complexes)?
A: < 10 nM

Q: With `CN(C)S(=O)(=O)NC(=O)[C@@]12C[C@H]1/C=C\CCCCC[C@H](NC(=O)OC(C)(C)C)C(=O)N1C[C@H](Oc3nc4ccccc4n3C(C)(C)C)C[C@H]1C(=O)N2` [Compound 206] as the compound, how does the EC50 (hepatitis C replicon; [2]) read?
A: < 10 nM

Q: And the IC50 (NS3/NS4 complexes)?
A: < 10 nM

Q: Which EC50 (hepatitis C replicon; [2]) does the source give for `CC(C)n1c(O[C@@H]2C[C@H]3C(=O)N[C@]4(C(=O)NS(=O)(=O)C5(C)CC5)C[C@H]4/C=C\CCCCC[C@H](NC(=O)OC4COC4)C(=O)N3C2)nc2c(-c3nc(C4CCCC4)cs3)cccc21` [Compound 1414] here?
A: < 10 nM

Q: What about the IC50 (NS3/NS4 complexes) of the same compound?
A: < 10 nM

Q: For `CC(C)n1cnc2cnc(O[C@@H]3C[C@H]4C(=O)N[C@]5(C(=O)NS(=O)(=O)C6(C)CC6)C[C@H]5C=CCCCCC[C@H](Nc5ccc(C(F)(F)F)cc5)C(=O)N4C3)nc21`, which ring closure, yield of all isomers ([1]; from C=CCCCCC[C@H](Nc1ccc(C(F)(F)F)cc1)C(=O)N1C[C@H](Oc2ncc3ncn(C(C)C)c3n2)C[C@H]1C(=O)N[C@]1(C(=O)NS(=O)(=O)C2(C)CC2)C[C@H]1C=C, Zhan catalyst, toluene, 7.78 mM, 65.0 °C, 1.5 h) is on record?
A: 29%

Q: What does the source list for `CC(C)n1c(O[C@@H]2C[C@H]3C(=O)N[C@]4(C(=O)NS(=O)(=O)C5(C)CC5)C[C@H]4/C=C\CCCCC[C@H](Nc4cccc(F)c4)C(=O)N3C2)nc2c(-c3nc(C4CCCC4)cs3)cccc21` [Compound 1729]?
A: EC50 (hepatitis C replicon; [2]): 10 to 100 nM; IC50 (NS3/NS4 complexes): < 10 nM

Q: Which EC50 (hepatitis C replicon; [2]) does the source give for `Cc1ccc(-c2csc(-c3cccc4c3nc(O[C@@H]3C[C@H]5C(=O)N[C@]6(C(=O)NS(=O)(=O)C7(C)CC7)C[C@H]6/C=C\CCCCC[C@H](NC(=O)OC(C)(C)C)C(=O)N5C3)n4C(C)C)n2)c(C)c1` [Compound 1717] here?
A: 10 to 100 nM

Q: And the IC50 (NS3/NS4 complexes)?
A: < 10 nM

Q: Which results are given for `CC(C)n1c(O[C@@H]2C[C@H]3C(=O)N[C@]4(C(=O)NS(=O)(=O)N(C)C)C[C@H]4/C=C\CCCCC[C@H](NC(=O)OC(C)(C)C)C(=O)N3C2)nc2c(NC(=O)Nc3ccccc3)cccc21` [Compound 1420]?
A: EC50 (hepatitis C replicon): < 10 nM; IC50 (NS3/NS4 complexes): < 10 nM

Q: For `COc1ccc2c(O[C@@H]3C[C@H]4C(=O)N[C@]5(C(=O)NS(=O)(=O)C6(C)CC6)C[C@H]5/C=C\CCCCC[C@H](Nc5cccc(C(=O)N6CCOC(C)C6)c5)C(=O)N4C3)cc(-c3nc(C(C)C)cs3)nc2c1C` (some centres unmarked) [Compound 109], which EC50 (hepatitis C replicon; [2]) is on record?
A: < 10 nM

Q: And the IC50 (NS3/NS4 complexes)?
A: < 10 nM

Q: With `Cn1cnc2ccc(O[C@@H]3C[C@H]4C(=O)N[C@]5(C(=O)NS(=O)(=O)C6(C)CC6)C[C@H]5/C=C\CCCCC[C@H](NC(=O)OC(C)(C)C)C(=O)N4C3)cc21` [Compound 296] as the compound, how does the EC50 (hepatitis C replicon; [2]) read?
A: > 100 nM

Q: What about the IC50 (NS3/NS4 complexes) of the same compound?
A: < 10 nM

Q: With `Cc1nc2cc(O[C@@H]3C[C@H]4C(=O)N[C@]5(C(=O)NS(=O)(=O)N(C)C)C[C@H]5/C=C\CCCCC[C@H](NC(=O)OC(C)(C)C)C(=O)N4C3)ccc2s1` [Compound 1253] as the compound, how does the EC50 (hepatitis C replicon; [2]) read?
A: > 100 nM

Q: What about the IC50 (NS3/NS4 complexes) of the same compound?
A: < 10 nM

Q: Which EC50 (hepatitis C replicon; [2]) does the source give for `CC(C)n1c(O[C@@H]2C[C@H]3C(=O)N[C@]4(C(=O)NS(=O)(=O)N(C)C)C[C@H]4/C=C\CCCCC[C@H](NC(=O)OC(C)(C)C)C(=O)N3C2)nc2c(-c3ccccc3)cccc21` [Compound 210] here?
A: < 10 nM

Q: What about the IC50 (NS3/NS4 complexes) of the same compound?
A: < 10 nM

Q: Which results are given for `CC(C)n1c(O[C@@H]2C[C@H]3C(=O)N[C@]4(C(=O)NS(=O)(=O)C5(C)CC5)C[C@H]4/C=C\CCCCC[C@H](Nc4ccccc4)C(=O)N3C2)nc2c(C(=O)Nc3ccccc3)cccc21` [Compound 273]?
A: EC50 (hepatitis C replicon; [2]): 10 to 100 nM; IC50 (NS3/NS4 complexes): < 10 nM

Q: With `CC(C)n1c(O[C@@H]2C[C@H]3C(=O)N[C@]4(C(=O)NS(=O)(=O)N(C)C)C[C@H]4/C=C\CCCCC[C@H](NC(=O)OC(C)(C)C)C(=O)N3C2)nc2c(C(=O)NCc3ccccc3)cccc21` [Compound 283] as the compound, how does the EC50 (hepatitis C replicon; [2]) read?
A: < 10 nM

Q: What about the IC50 (NS3/NS4 complexes) of the same compound?
A: < 10 nM

Q: Which results are given for `CC(C)(C)OC(=O)N[C@H]1CCCCC/C=C\[C@@H]2C[C@@]2(C(=O)NS(=O)(=O)C2(C)CC2)NC(=O)[C@@H]2C[C@@H](Oc3ccc4c(c3)ncn4-c3ccccc3)CN2C1=O` [Compound 294]?
A: EC50 (hepatitis C replicon; [2]): > 100 nM; IC50 (NS3/NS4 complexes): < 10 nM

Q: For `CCc1cccc2c1nc(O[C@@H]1C[C@H]3C(=O)N[C@]4(C(=O)NS(=O)(=O)C5(C)CC5)C[C@H]4/C=C\CCCCC[C@H](Nc4ccccc4)C(=O)N3C1)n2C(C)C` [Compound 265], which EC50 (hepatitis C replicon; [2]) is on record?
A: 10 to 100 nM

Q: And the IC50 (NS3/NS4 complexes)?
A: < 10 nM

Q: With `CCOC(=O)Nc1cccc2c1nc(O[C@@H]1C[C@H]3C(=O)N[C@]4(C(=O)NS(=O)(=O)C5(C)CC5)C[C@H]4/C=C\CCCCC[C@H](Nc4ccccc4)C(=O)N3C1)n2C(C)C` [Compound 1409] as the compound, how does the EC50 (hepatitis C replicon; [2]) read?
A: < 10 nM

Q: And the IC50 (NS3/NS4 complexes)?
A: < 10 nM

Q: Which results are given for `Cc1ccc(-c2csc(-c3cccc4c3nc(O[C@@H]3C[C@H]5C(=O)N[C@]6(C(=O)NS(=O)(=O)N(C)C)C[C@H]6/C=C\CCCCC[C@H](NC(=O)OC(C)(C)C)C(=O)N5C3)n4C(C)C)n2)cc1` [Compound 1746]?
A: EC50 (hepatitis C replicon; [2]): 10 to 100 nM; IC50 (NS3/NS4 complexes): < 10 nM

Q: With `CC(C)n1c(O[C@@H]2C[C@H]3C(=O)N[C@]4(C(=O)NS(=O)(=O)N(C)C)C[C@H]4/C=C\CCCCC[C@H](NC(=O)OC(C)(C)C)C(=O)N3C2)nc2c(NC(=O)NCCc3ccccc3)cccc21` [Compound 1424] as the compound, how does the EC50 (hepatitis C replicon) read?
A: < 10 nM

Q: What about the IC50 (NS3/NS4 complexes) of the same compound?
A: < 10 nM

Q: What does the source list for `CCn1cnc2ccc(O[C@@H]3C[C@H]4C(=O)N[C@]5(C(=O)NS(=O)(=O)C6(C)CC6)C[C@H]5/C=C\CCCCC[C@H](NC(=O)OC(C)(C)C)C(=O)N4C3)cc21` [Compound 298]?
A: EC50 (hepatitis C replicon; [2]): > 100 nM; IC50 (NS3/NS4 complexes): < 10 nM
